Test results: patent publication US20260183274A1, “PDK1 REGULATORY COMPOUND AND COMPOSITION CONTAINING THE SAME” (PROVIBIO CO., LTD., priority 2024, published 2026)

How the values were obtained:
[1] = test system: HCT-116 colon cancer cell lines; test: Matrigel Invasion Assay, HCT-116; assay type: cell-based, human; settings: 24 hours treatment, FIG. 30
Procedure: To evaluate the metastasis inhibitory efficacy of the compounds of the present invention on HCT-116 colon cancer cell lines, an Invasion Assay using Matrigel was performed to assess the cells' invasion ability.
First, Matrigel was thawed on ice in RPMI-1640 medium without FBS, then diluted with DMEM at a ratio of 1:20.
The diluted Matrigel mixture was applied to the upper chamber at 100 μl per well, and 750 μl of RPMI-1640 without FBS was added to the lower chamber.
The plates were then incubated at 37° C. for 1 hour to allow the Matrigel to solidify.
After coating, the Matrigel mixture in the upper chamber was removed using a pipette, and the chamber was washed with RPMI without FBS.
Human-derived colorectal cancer cell line HCT-116, obtained from the Korean Cell Bank, was cultured in RPMI-1640 medium containing 10% FBS.
Following stabilization, the cells were harvested using Trypsin-EDTA treatment, centrifuged at 1,200 rpm for 3 minutes, the supernatant was removed, and the cells were resuspended in the same medium, the medium in the lower chamber was replaced with 750 μl of RPMI-1640 supplemented with 10% FBS, and the cells were seeded into the upper chamber at a density of 5×10^4 cells/well.
The cells were cultured for 24 hours after attachment, and then the compounds according to the present invention (G078, G085, G086, G088, G089, PBK-2024-010, PBK-2025-010, PBK-2025-013, PBK-2025-016) and the control substance DMSO were diluted and added to the upper chamber after removing the medium.
Additionally, the medium in the lower chamber was replaced with fresh RPMI-1640 containing FBS, and the culture was continued.
After an additional 24 hours, the medium was removed, and 1 ml of methanol was added for 10 minutes to fix the cells.
Subsequently, 1 ml of Hematoxylin was added and reacted for 5 minutes, followed by 1 ml of Eosin, which was reacted for 30 seconds. The sample was then washed with distilled water (DW).
After staining was complete, any remaining cells in the upper chamber were removed. Finally, the infiltrated cells were observed under a microscope, photographed, and the degree of infiltration was analyzed.

[2] = test system: Human Colorectal Carcinoma cell line, HCT-116; test: Relative cell viability CCK-8, HCT-116; assay type: cell-based; settings: 48 hours; for viability at 1 µM / viability at 10 µM / viability at 30 µM / viability at 50 µM: Homo sapiens, HCT-116
Procedure: Human-derived breast cancer cell line MCF-7, human-derived lung cancer cell line A549, human-derived colorectal cancer cell line HCT-116, human pancreatic cancer cell line AsPC-1, glioblastoma cell line A172, and melanoma cell line Malme-3M were obtained from the Korean Cell Bank. gastric cancer cell line SNU-719, and bladder cancer cell line T24 were cultured in RPMI-1640 medium containing 10% FBS.
Following stabilization, the cells were harvested using Trypsin-EDTA treatment, centrifuged at 1,200 rpm for 3 minutes, the supernatant was removed, and the cells were resuspended in the same medium. They were then seeded into a 96-well plate (Costar 96-well cell culture plate, Corning) at 100 μL per well, and the conditions were adjusted as indicated in Table 5.
The cells were cultured in a 5% CO2 incubator at 37° C. for 24 hours, and after stabilization of the cells, each plate was washed with 200 μL of PBS per well and treated with 50 μL of culture medium per well.
After that, 10 μL of CCK-8 was added to each well, and the plate was incubated again at 37° C. in a 5% CO2 incubator for 2 hours.
In other words, when the survival rate of untreated cells (DMSO) is set at 100%, the relative cell survival rate in each group treated with the drug at different concentrations is indicated.

[3] = test system: BALB/c mice with induced psoriasis; test: Psoriasis animal model (Aldara cream, Imiquimod); assay type: in vivo, mouse
Procedure: To verify the therapeutic effect of the compound according to the present invention on psoriasis, a psoriasis animal model was established as follows, and the compound according to the present invention was administered to evaluate the alleviation of skin lesions and changes in immune cell patterns.
For the establishment of the psoriasis animal model, BALB/c mice (7 weeks old, female, 20 g) were purchased from HanabioTech Co., Ltd. and acclimatized to the rearing environment for one week.
Subsequently, the hair on the mouse back was shaved using a hair removal device for the first time, and then completely shaved using a depilatory cream (Nicrin Cream (80% thioglycolic acid, Il Dong Pharmaceutical)) for the second time. The mice were then kept for 24 hours to confirm the absence of skin damage.
[Normal control group (Normal, Not Treatment), psoriasis-induced control group (Psoriasis, Not Treatment), psoriasis-induced vehicle control group (Psoriasis, Vehicle), experimental group (GO85, GO86, GO88, GO89, PBK-2024-010, PBK-2024-026, PBK-2025-002, PBK-2025-004, PBK-2025-016, PBK-2025-017, PBK-2025-023)]. […]
Body weights of mice in each group were measured on days 1, 4, and 8 after the start of injection and psoriasis induction. […]
To evaluate the therapeutic effect in a psoriasis-induced mouse model, the PASI (Psoriasis Area and Severity Index) score was measured.
The PASI score is based on three criteria: erythema, scaling, and skin thickness, each scored from 0 (none) to 4 (severe). […]
Observations were conducted daily at the same time, and the same observer visually assessed each criterion and recorded the scores, with the results presented in FIG. 13. […]
All samples were measured in duplicate, and the absorbance was measured at 450 nm using a microplate reader.

SMILES	Number of infiltrated cells (invasion) [1]	Relative cell viability (%), HCT-116 ([2]; 1 μM)	Relative cell viability (%), HCT-116 ([2]; 10 μM)	Relative cell viability (%), HCT-116 ([2]; 30 μM)	Relative cell viability (%), HCT-116 ([2]; 50 μM)	Efficacy in improving dermatological symptoms [3]	viability at 1 µM ([2]; 1 μM)	viability at 10 µM ([2]; 10 μM)	viability at 30 µM ([2]; 30 μM)	viability at 50 µM ([2]; 50 μM)
Nc1ncccc1C(=O)NCCCCCCCCCCCCN1CCNCC1 [Compound 5, 2-Amino-N-(12-(piperazin-1-yl)dodecyl)-nicotinamide]	reduction in the number of infiltrated cells	–	–	–	–	–	–	–	–	–
CC1(C)CN(CCCCCCCCCCCCC(=O)Nc2nc(N)c3[nH]cnc3n2)CCO1 [Compound 11, 12-[4-(2,2-dimethylmorpholin-4-yl)]dodecyl-N-(6-aminopurine-2-yl) carboxamide]	reduction in the number of infiltrated cells	21.36%	24.91%	24.78%	25.26%	excellent efficacy in improving dermatological symptoms	–	–	–	–
Nc1ncccc1C(=O)NCCCCCCCCCCCCN1CCNCC1 [Compound 14, 2-Amino-N-(12-(piperazin-1-yl)dodecyl)nicotinamide]	–	–	–	–	–	excellent efficacy in improving dermatological symptoms	14.2%	12.3%	9.38%	7.61%
Nc1nc(NC(=O)CCCCCCCCCCCCN2CCN(CCO)CC2)nc2nc[nH]c12 [Compound 15, 12-[4-(2-hydroxyethyl)piperazin-1-yl]dodecyl-N-(6-aminopurine-2-yl) carboxamide]	reduction in the number of infiltrated cells	–	–	–	–	excellent efficacy in improving dermatological symptoms	12.1%	11.5%	10%	9.08%
